Experimental data taken from patent US9233951B2, “Heterocyclic compounds as pesticides” (Bayer Intellectual Property GmbH, priority 2010, dated 2016).
Where two headings read alike, the source gives them in different places.

Columns and labels:
physchem = format: physicochemical
Protocol: 1 Method Description for Determination of the logP values and Mass Detection
Eluents for determination in the acidic range (pH 3.4): • Eluent A: acetonitrile+1 ml formic acid/l.
The λmax values were determined in the maxima of the chromatographic signals using the UV spectra from 200 nm to 400 nm. The mass was detected (M^+, m/z) by means of an Agilent MSD mass spectrometer.

[1] = test system: green peach aphid (Myzus persicae); test: Myzus persicae test (spray treatment); format: in vivo; details: foliar, 144 h, read-out: efficacy in %
Protocol: Myzus persicae Test (Spray Treatment)
• Solvent: 78 parts by weight of acetone • 1.5 parts by weight of dimethylformamide • Emulsifier: 0.5 part by weight of alkylaryl polyglycol ether
To prepare an appropriate active ingredient preparation, 1 part by weight of active ingredient is mixed with the stated amounts of solvent and emulsifier, and the concentrate is diluted with emulsifier-containing water to the desired concentration. Discs of Chinese cabbage (Brassica pekinensis) infested by all stages of the green peach aphid (Myzus persicae) are sprayed with an active ingredient preparation of the desired concentration.
After 6 days, the efficacy in % is determined. 100% means that all of the aphids have been killed; 0% means that none of the aphids have been killed.

[2] = reverse-phase HPLC column (C 18), pH 3.4, HPLC, reverse-phase C 18, acidic range pH 3.4, 55° C., table of compounds, read-out: logP (HCO2H)
[3] = reverse-phase HPLC column (C 18), pH 3.4, HPLC-MS value printed in the preparation example text, acidic range pH 3.4, read-out: logP (HCOOH)
[4] = application rate 500 g/ha, Chinese cabbage leaf discs sprayed, after 6 days, 100% = all aphids killed
[5] = pH 3.4, HPLC-MS value printed in the preparation example text, acidic range pH 3.4, read-out: logP (HCOOH)

## O=C(NCC(F)(F)Br)c1ccc(-c2cccnc2)o1 [Compound 26]
physchem; [2]
  chromatographic logP: 1.49

## CCOC(=O)c1nnc(-c2cccnc2)o1 [Ethyl 5-(pyridin-3-yl)-1,3,4-oxadiazole-2-carboxylate]
physchem; [3]
  chromatographic logP: 1.21

## CCOC(=O)c1ncn(-c2cccnc2)c1C [Ethyl 5-methyl-1-(pyridin-3-yl)-1H-imidazole-4-carboxylate]
physchem; [3]
  chromatographic logP: 1.03

## O=C(NCC=CCl)c1ccc(-c2cccnc2)o1 [Compound 18]
physchem; HPLC, reverse-phase C 18, acidic range pH 3.4, 55° C., table of compounds
  logP (HCO2H): 1.33
physchem; [2]
  chromatographic logP: 1.27
[1]; [4]
  pest or weed control at 500 g/ha: 90%

## CCOC(=O)c1cn(-c2cccnc2)nn1 [Ethyl 1-(pyridin-3-yl)-1H-1,2,3-triazole-4-carboxylate]
physchem; [3]
  chromatographic logP: 1.15

## Cc1nc(C(=O)NCC(F)(F)F)sc1-c1cccnc1 [Compound 47, 4-Methyl-5-(3-pyridyl)-N-(2,2,2-trifluoroethyl)-1,3-thiazole-2-carboxamide]
physchem; [2]
  chromatographic logP: 1.74
physchem; [3]
  chromatographic logP: 1.74

## Cc1cc(-c2cccnc2)sc1C(=O)O [3-Methyl-5-(pyridin-3-yl)thiophene-2-carboxylic acid]
physchem; [3]
  chromatographic logP: 1.96

## C#CCNC(=O)c1ccc(-c2cccnc2)o1 [Compound 22]
physchem; [2]
  chromatographic logP: 0.72
[1]; [4]
  pest or weed control at 500 g/ha: 100%

## O=C(NCc1ncccn1)C1CN=C(c2cncnc2)S1 (racemic) [Compound 44, (R,S)-4,5-Dihydro-N-(pyrimidin-2-ylmethyl)-2-(5-pyrimidinyl)-1,3-thiazole-5-carboxamide]
physchem; [2]
  chromatographic logP: 0.9
physchem; [3]
  chromatographic logP: 0.9
[1]; [4]
  pest or weed control at 500 g/ha: 80%

## CN(CC#N)C(=O)c1ccc(-c2cccnc2)o1 [Compound 16]
physchem; [2]
  chromatographic logP: 0.72
[1]; [4]
  pest or weed control at 500 g/ha: 90%

## Cc1c(C(=O)NCC(F)(F)F)ncn1-c1cccnc1 [Compound 50, 5-Methyl-1-(pyridin-3-yl)-N-(2,2,2-trifluoroethyl)-1H-imidazole-4-carboxamide]
physchem; [2]
  chromatographic logP: 1.28
physchem; [3]
  chromatographic logP: 1.28

## O=C(O)c1cnc(-c2cccnc2)o1 [2-(Pyridin-3-yl)-1,3-oxazole-5-carboxylic acid]
physchem; [3]
  chromatographic logP: -0.06

## O=C(O)c1csc(-c2cccnc2)n1 [2-(Pyridin-3-yl)-1,3-thiazole-4-carboxylic acid]
physchem; [3]
  chromatographic logP: 0.35

## CCOC(=O)c1cc(-c2ccc(Cl)nc2)ns1 [Ethyl 3-(6-chloropyridin-3-yl)-1,2-thiazole-5-carboxylate]
physchem; [3]
  chromatographic logP: 3.33

## CCN(C)C(=O)c1ccc(-c2cccnc2)o1 [Compound 11]
physchem; [2]
  chromatographic logP: 1
[1]; [4]
  pest or weed control at 500 g/ha: 100%

## O=C(NCC(F)F)c1csc(-c2cccnc2)n1 [Compound 33, N-(2,2-Difluoroethyl)-2-(pyridin-3-yl)-1,3-thiazole-4-carboxamide]
physchem; pH 3.4, HPLC, reverse-phase C 18, acidic range pH 3.4, 55° C., table of compounds, read-out: logP (HCO2H)
  chromatographic logP: 1.22
physchem; [5]
  chromatographic logP: 1.18
[1]; in Brassica rapa
  pest or weed control at 500 g/ha: 100%

## CN(C)C(=O)C1CN=C(c2cccnc2)S1 (racemic) [Compound 41, (R,S)-4,5-Dihydro-N,N-dimethyl-2-(3-pyridinyl)-1,3-thiazole-5-carboxamide]
[1]; [4]
  pest or weed control at 500 g/ha: 100%

## CCN(CC)C(=O)c1ccc(-c2cccnc2)o1 [Compound 6]
physchem; [2]
  chromatographic logP: 1.23
[1]; [4]
  pest or weed control at 500 g/ha: 100%

## O=C(O)C1CN=C(c2cncnc2)S1 (racemic) [(R,S)-4,5-Dihydro-2-(5-pyrimidinyl)-1,3-thiazole-5-carboxylic acid]
physchem; [3]
  chromatographic logP: 0.3

## O=C(NCC1CCCCC1)c1ccc(-c2cccnc2)o1 [Compound 15]
physchem; [2]
  chromatographic logP: 2.02

## O=C(c1ccc(-c2cccnc2)o1)N1CCCC1 [Compound 10]
physchem; [2]
  chromatographic logP: 1.06

## CSC[C@H](C)NC(=O)c1nnc(-c2cccnc2)o1 [Compound 35]
physchem; [2]
  chromatographic logP: 1.39
[1]; [4]
  pest or weed control at 500 g/ha: 80%

## N#CCNC(=O)c1csc(-c2cccnc2)n1 [Compound 14]
physchem; [2]
  chromatographic logP: 0.8
[1]; [4]
  pest or weed control at 500 g/ha: 80%

## O=C(NCc1ncccn1)C1CN=C(c2cccnc2)S1 (stereo not shown) [Compound 43]
physchem; pH 3.4, logP (HCO2H)
  chromatographic logP: 0.32
[1]; [4]
  pest or weed control at 500 g/ha: 100%

## Cc1nc(-c2cccnc2)oc1C(=O)O [4-Methyl-2-(pyridin-3-yl)-1,3-oxazole-5-carboxylic acid]
physchem; [3]
  chromatographic logP: 0.56

## O=C(NCc1cccs1)c1ccc(-c2cccnc2)o1 [Compound 17]
physchem; [2]
  chromatographic logP: 1.46
[1]; [4]
  pest or weed control at 500 g/ha: 100%

## O=C(NCC(F)(F)F)c1cc(-c2cccnc2)no1 [Compound 40]
physchem; [2]
  chromatographic logP: 1.33

## CNC(=O)c1ccc(-c2cccnc2)o1 [Compound 31, N-Methyl-5-(pyridin-3-yl)furan-2-carboxamide]
physchem; [2]
  chromatographic logP: 0.42
physchem; [3]
  chromatographic logP: 0.42
[1]; in Brassica rapa
  pest or weed control at 500 g/ha: 100%

## Cc1nc(-c2cccnc2)oc1C(=O)NCC(F)(F)F [Compound 4, 4-Methyl-2-(pyridin-3-yl)-N-(2,2,2-trifluoroethyl)-1,3-oxazole-5-carboxamide]
physchem; [2]
  chromatographic logP: 1.46
physchem; [3]
  chromatographic logP: 1.46

## O=C(O)C1CN=C(c2cccnc2)S1 (racemic) [(R,S)-4,5-Dihydro-2-(3-pyridinyl)-1,3-thiazole-5-carboxylic acid]
physchem; [5]
  chromatographic logP: 0.75

## O=C(NCC(F)(F)F)c1cc(-c2cccnc2)on1 [Compound 39, 5-(Pyridin-3-yl)-N-(2,2,2-trifluoroethyl)-1,2-oxazole-3-carboxamide]
physchem; [2]
  chromatographic logP: 1.51
physchem; [3]
  chromatographic logP: 1.51

## O=C(O)c1cn(-c2cccnc2)nn1 [1-(Pyridin-3-yl)-1H-1,2,3-triazole-4-carboxylic acid]
physchem; [3]
  chromatographic logP: -0.03

## CC(F)(F)CNC(=O)c1cc(-c2ccc(Cl)nc2)ns1 [3-(6-Chloropyridin-3-yl)-N-(2,2-difluoropropyl)-1,2-thiazole-5-carboxamide]
physchem; [3]
  chromatographic logP: 2.45

## CCOC(=O)c1nc(C)c(-c2cccnc2)s1 [Ethyl 4-methyl-5-(3-pyridinyl)-1,3-thiazole-2-carboxylate]
physchem; [3]
  chromatographic logP: 0.45

## O=C(NCC(F)(F)F)C1CN=C(c2cccnc2)S1 (stereo not shown) [Compound 42]
physchem; pH 3.4, logP (HCO2H)
  chromatographic logP: 0.54

## O=C(O)c1coc(-c2cccnc2)c1 [5-(Pyridin-3-yl)furan-3-carboxylic acid]
physchem; [3]
  chromatographic logP: 0.07

## O=C(O)c1cc(-c2ccc(Cl)nc2)ns1 [3-(6-Chloropyridin-3-yl)-1,2-thiazole-5-carboxylic acid]
physchem; [3]
  chromatographic logP: 1.56

## CSCCNC(=O)c1nnc(-c2cccnc2)o1 [Compound 34, N-(2-Methylmercaptoethyl)-5-(pyridin-3-yl)-1,3,4-oxazole-2-carboxamide]
physchem; [2]
  chromatographic logP: 1.13
physchem; [3]
  chromatographic logP: 1.13

## O=C(NCC(F)(F)F)n1cc(-c2cccnc2)cn1 [Compound 48]
physchem; [3]
  chromatographic logP: 0.95

## O=C(NCC(F)(F)F)c1nnc(-c2cccnc2)o1 [Compound 49, 5-(Pyridin-3-yl)-N-(2,2,2-trifluoroethyl)-1,3,4-oxadiazole-2-carboxamide]
physchem; [2]
  chromatographic logP: 1.21
physchem; [3]
  chromatographic logP: 1.21

## COC(=O)c1ccn(-c2cccnc2)c1 [Methyl 1-(pyridin-3-yl)pyrrole-3-carboxylate]
physchem; [3]
  chromatographic logP: 1.26

## CN(C)C(=O)C1CN=C(c2cncnc2)S1 (stereo not shown) [Compound 46]
physchem; [2]
  chromatographic logP: 0.99

## Cc1cc(-c2cccnc2)sc1C(=O)NCC(F)(F)F [Compound 5, 3-Methyl-5-(pyridin-3-yl)-N-(2,2,2-trifluoroethyl)thiophene-2-carboxamide]
physchem; [2]
  chromatographic logP: 1.62
physchem; [3]
  chromatographic logP: 1.62

## NC(=O)c1csc(-c2cccnc2)n1 [Compound 28]
[1]; [4]
  pest or weed control at 500 g/ha: 100%
